Source: US20240390353A1, “METHOD OF TREATMENT WITH TRADIPITANT” (Vanda Pharmaceuticals Inc., priority 2018, published 2024)
Entries after “also recorded” stand apart in the source; their conditions may differ.

Test system: otherwise healthy adults reporting regular illicit opioid misuse
Assay: Double-blind within-subject crossover inpatient study: subject-rated outcomes of intranasal oxycodone during tradipitant vs placebo maintenance (sample sessions)
Format: in vivo, human
Description: A double-blind, inpatient, approximately 6 week study employing a within-subject crossover design examines the effects of maintenance with tradipitant as compared to placebo on response to oxycodone. Study subjects include otherwise healthy adults reporting regular illicit opioid misuse, and history of intranasal opioid use without physical dependence.
Subjects are administered placebo or tradipitant (85 mg p.o., bid) on study days 3-17 with a washout period on days 18-23, followed by administration of placebo or tradipitant (85 mg p.o., bid) on study days 24-39. In the study, tradipitant/placebo administration is counterbalanced across subjects. On study days 3, […], 24, and 39, subjects participate in challenge sessions (day 1 and steady state) in which they receive 0, 5, 10, or 20 mg intranasal (IN) oxycodone at 1 hr. intervals, after which effect of tradipitant on analgesia in humans is evaluated. On study days 2, 8, 11, 15, 29, 32, and 36, subjects participate in sample sessions in which subjects are administered 0, 15, or 30 mg IN oxycodone, after which effect of tradipitant on subject-rated outcomes is evaluated. Such subject-rated outcomes include responses to questions including “how much do you like the drug,” “does the drug have any good effects,” “do you feel any drug effect,” and “how much do you desire opiates right now?” Further, on study days 9, 12, 16, 30, 33, and 37, subjects participate in choice sessions, in which effect of tradipitant on oxycodone self-administration is evaluated.

[1] = 0, 15 or 30 mg IN oxycodone, difference from 0 mg
[2] = tradipitant 85 mg p.o. bid maintenance, at some opioid drug doses, e.g. 15 mg IN oxycodone, FIGS. 1-3

| Structure (SMILES) | effect of oxycodone dose on trough scores for desire for opioids (0, 15 or 30 mg IN oxycodone) | peak ratings of good effects [1] | peak ratings of liking for the drug [1] | peak ratings of overall drug effect [1] | desire for opioids (cravings), trough scores ("how much do you desire opiates right now?") (tradipitant 85 mg p.o. bid maintenance compared to placebo maintenance, 0, 15 or 30 mg IN oxycodone, FIG. 4) | perception of how good the effects of the drug were [2] | perception of how much of a drug effect was felt [2] | perception of how much the opioid drug was liked [2] | pleasurable and drug seeking sensations (tradipitant maintenance, at some doses) |
| --- | --- | --- | --- | --- | --- | --- | --- | --- | --- |
| COc1ccc2c3c1O[C@H]1C(=O)CC[C@@]4(O)[C@@H](C2)N(C)CC[C@]314 [Oxycodone, oxycodone, reference compound] | no significant effect | significant and dose-dependent increases | significant and dose-dependent increases | significant and dose-dependent increases | – | – | – | – | – |
| O=C(c1ccccc1Cl)c1cccnc1-c1nnn(Cc2cc(C(F)(F)F)cc(C(F)(F)F)c2)c1-c1ccncc1 [tradipitant] | – | – | – | – | diminished; also recorded: reduces | decreases | decreases | decreases | decreases |
